From US7799954B2, “Dicarbonyl derivatives and methods of use” (Abraxis BioScience, LLC, priority 2006, dated 2010)

Each compound was assayed on MX-1 (human breast carcinoma) cells (assay: in vitro growth inhibition, Promega CellTiter Blue Cell Viability Assay). Details: MX1, 72 h.
Assay type: cell-based
Description: The cytotoxicity assay was quantitated using the Promega CellTiter Blue Cell Viability Assay. Briefly, cells (5000 cells/well) were plated onto 96-well microtiter plates in RPMI 1640 medium supplemented with 10% FBS and incubated at […] in a humidified 5% CO2 atmosphere. After 24 h, cells were exposed to various concentrations of compound in DMSO and cultured for another 72 h. 100 ul of media were removed and 20 ul of Promega CellTiter Blue reagent were added to each well and shaken to mix. After 4 hours of incubation at 37° C. in a humidified 5% CO2 atmosphere, the plates were read at 544 ex/620 em. The fluorescence produced is proportional to the number of viable cells. After plotting fluorescence produced against drug concentration, the IC50 was calculated as the […] of the resulting non-linear regression.

Compound	IC50 [µM]
O=C1CCC(c2ccccc2)CC1C1CC(c2ccccc2)CCC1=O (centres unmarked) [Compound 3]	29.7
CCCC/C=C/C(=O)CCC(=O)/C=C/CCCC [Compound 15]	7.99
C/C=C/C(=O)C(C)C(C)C(=O)/C=C/C (centres unmarked) [Compound 7]	2.63
CC1(C)C=CC(=O)C(C2CC(C)(C)C=CC2=O)C1 (centres unmarked) [Compound 2]	56.8
COc1cc(/C=C/C(=O)/C=C/C(=O)O)cc(OC)c1OC [Compound 30]	34.2
O=C1OC(c2ccccc2)CC1C1CC(c2ccccc2)OC1=O (centres unmarked) [Compound 9]	472
O=C(CCC(=O)C1=CCCCC1)C1=CCCCC1 [Compound 10]	> 1000
O=C(/C=C/c1ccc2c(c1)OCO2)CC1CCC=CC1=O (centres unmarked) [Compound 24]	0.7
C/C=C/C(=O)C(C)C1CCC=CC1=O (centres unmarked) [Compound 20]	0.52
CC(C)=CC(=O)CCC(=O)C=C(C)C [Compound 11]	10.3
O=C1c2ccccc2CCC1C1CCc2ccccc2C1=O (centres unmarked) [Compound 6]	> 1000
O=C(/C=C/c1ccccc1)CCC(=O)/C=C/c1ccccc1 [Compound 13]	37.9
CC(C(=O)c1ccccc1)C(C)C(=O)c1ccccc1 (centres unmarked) [Compound 12]	> 1000
O=C(/C=C/c1ccccc1)CC1CCC=CC1=O (centres unmarked) [Compound 21]	0.42
O=C(O)/C=C/C(=O)/C=C/c1ccccc1 [Compound 28]	3.96
CCOC1=CC(=O)C(C2CCC(OCC)=CC2=O)CC1 (centres unmarked) [Compound 4]	> 1000
O=C(/C=C/c1cccc(Cl)c1)CCC(=O)/C=C/c1cccc(Cl)c1 [Compound 14]	55.7
COc1ccc(/C=C/C(=O)/C=C/C(=O)N2CCN(c3ccccc3)CC2)cc1OC [Compound 38]	0.25
COc1ccc(/C=C/C(=O)/C=C/C(=O)N2CCN(c3ccncc3)CC2)cc1OC [Compound 37]	0.12
COc1ccc(/C=C/C(=O)/C=C/C(=O)O)cc1OC [Compound 29]	29
COc1ccc2c(c1)CCC(C1CCc3cc(OC)ccc3C1=O)C2=O (centres unmarked) [Compound 5]	> 1000
CN(C)C1=CC(=O)C(C2C(=O)C=C(N(C)C)CC2(C)C)C(C)(C)C1 (centres unmarked) [Compound 1]	> 1000
COc1ccc(/C=C/C(=O)CC2CCC=CC2=O)cc1OC (centres unmarked) [Compound 23]	0.17

Same assay, conditions: MX1, MX-1 cells, 72 h exposure, CellTiter Blue fluorescence 544 ex/620 em, read-out: IC50

Compound	IC50 [µM]
COc1cc(/C=C/C(=O)/C=C/C(=O)N2CCN(C)CC2)cc(OC)c1OC [Compound 39]	0.8
COc1ccc(/C=C/C(=O)CCC(=O)/C=C/c2ccc(OC)c(OC)c2)cc1OC [Compound 17]	73.1
COC(=O)/C=C/C(=O)Nc1ccc(F)cc1 [Compound 41]	121
COc1ccc(/C=C/C(/C=C/C(=O)N2CCN(C)CC2)=NOc2ccccc2)cc1OC [Compound 47]	8.73
O=C(O)c1cc(/C=C/c2ccccc2)no1 [Compound 50]	> 1000
CCOC(=O)/C=C/C(=O)/C=C/c1ccccc1 [Compound 31]	2.17
O=C(/C=C/C(=O)Nc1ccccc1)/C=C/c1ccccc1 [Compound 33]	3.25
C/C=C/C(=O)C(C)CC(=O)/C=C/c1ccccc1 (centres unmarked) [Compound 22]	2.07
COc1ccc(/C=C/C(/C=C/C(=O)N2CCN(C)CC2)=NO)cc1OC [Compound 45]	371
CC(C)=C/C=C/C(=O)CCC(=O)/C=C/C=C(C)C [Compound 16]	16.2
CON=C(/C=C/C(=O)N1CCN(C)CC1)/C=C/c1cc(OC)c(OC)c(OC)c1 [Compound 49]	> 1000
O=C1c2cc(F)ccc2OCC1C1COc2ccc(F)cc2C1=O (centres unmarked) [Compound 18]	> 1000
CCCN(C)C(=O)/C=C/C(/C=C/c1ccccc1)=N\OC [Compound 43]	171
COc1ccc(/C=C/C(/C=C/C(=O)N2CCN(C)CC2)=NOCc2ccccc2)cc1OC [Compound 48]	23.4
CON=C(/C=C/C(=O)N1CCN(C)CC1)/C=C/c1ccc(OC)c(OC)c1 [Compound 46]	482
COc1ccc(/C=C/C(=O)/C=C/C(=O)Nc2ccccc2)cc1OC [Compound 35]	0.89
CC(C)=CC(=O)CC1CCC=CC1=O (centres unmarked) [Compound 19]	1.04
CCCN(C)C(=O)/C=C/C(=O)/C=C/c1ccccc1 [Compound 32]	0.39
COc1ccc(/C=C/C(=O)/C=C/C(=O)N2CCN(C)CC2)cc1OC [Compound 36]	0.17
O=C(/C=C/c1ccc(O)cc1)CC1CCC=CC1=O (centres unmarked) [Compound 25]	0.16
CCCN(C)C(=O)/C=C/C(=O)/C=C/c1ccc(OC)c(OC)c1 [Compound 34]	0.28
CO/N=C(\C=C\c1ccc(OC)c(OC)c1)CC1CCC=C/C1=N\OC (centres unmarked) [Compound 42]	128
CCCN(C)C(=O)c1cc(/C=C/c2ccccc2)no1 [Compound 52]	195
COc1cc(/C=C/C(=O)/C=C/C(=O)N2CCN(c3ccncc3)CC2)cc(OC)c1OC [Compound 40]	0.48
CCOC(=O)CCC(=O)/C=C/c1ccccc1 [Compound 27]	77.5
CCOC(=O)c1cc(/C=C/c2ccccc2)no1 [Compound 51]	533
O=C(/C=C/c1cccc(C(F)(F)F)c1)CC1CCC=CC1=O (centres unmarked) [Compound 26]	2.59
